Read-outs that look alike come from different tables or passages of the source.
Assays:
[1] = molecular target: GSPT1 (Homo sapiens (Human), UniProt P15170+Q96SW2); assay: immunofluorescence assay for GSPT1 degradation in CAL-51 cells (Example 4); type: cell-based
In short: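 CAL-51 cells on fibronectin-coated plates were treated 6 h with serial dilutions (30 μM to 0.1 nM), then fixed and immunostained for GSPT1 with DAPI and phalloidin counterstains. Per-cell mean GSPT1 intensity from high-content imaging, normalized to controls; DC50 by non-linear regression.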

[2] = molecular target: CK1alpha (Homo sapiens (Human), UniProt P48729); assay: selectivity by Western blot in MM1S cells, CK1alpha; type: cell-based; parameters: key to CK1alpha degradation: A represents a no degradation observed at 30 μM; B represents trace degradation at 30 μM (below 20%); C represents weak degradation at 30 μM (below 50%); D represents degradation at 30 μM (>90%); E represents degradation at 3 μM (>90%); F represents degradation at 0.3 μM (>90%); details: for CK1alpha degradation: MM1S cells, 6 hours, 0.3, 3 and 30 μM
Sequence of CK1alpha (P48729 whole entry, looked up): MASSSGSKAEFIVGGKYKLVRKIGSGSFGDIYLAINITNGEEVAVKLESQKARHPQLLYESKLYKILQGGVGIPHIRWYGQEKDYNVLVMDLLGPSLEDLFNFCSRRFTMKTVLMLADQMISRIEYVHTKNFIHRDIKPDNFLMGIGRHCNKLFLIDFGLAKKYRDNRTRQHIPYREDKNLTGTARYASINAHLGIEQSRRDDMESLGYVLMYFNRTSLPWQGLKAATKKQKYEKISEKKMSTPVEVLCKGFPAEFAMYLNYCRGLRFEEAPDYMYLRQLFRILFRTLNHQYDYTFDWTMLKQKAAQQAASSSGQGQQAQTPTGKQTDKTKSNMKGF
Method: MM1S cells were purchased from ATCC (cat. Number CRL-2974), sub-cultured in 90% RPMI 1640 with 10% FBS, supplemented with 1× P/S and incubated at 37° C., 5% CO2. Compounds were stored as 10 mM DMSO stock. For the assay, MM1S cells (3 million cells/well) were plated in 6-well plates and incubated over night. Cells were treated with respective compounds using a serial dilution: 0.3 μM, 3 μM and 30 μM as well as a vehicle only (DMSO) control for 6 hours. Media with suspension cells was subsequently transferred to 15 mL conical tubes, wells rinsed twice with ice-cold PBS and merged with cell suspension in respective 15 mL conical tube. Cells were spinned down, supernatant aspirated, pellets resuspended in ice-cold PBS and transferred to microtubes. Cells were spinned down, supernatant aspirated and pellets resuspended in 120 μL RIPA lysis buffer supplemented with protease and phosphatase inhibitors. Cell lysates were incubated on ice for 20 minutes followed by centrifugation at >20,000 xg for 5 min. Supernatants were transferred to fresh microtubes and stored at −80° C. Total protein concentration was determined using a BCA assay with a BSA standard curve and concentration of all samples was adjusted to 1 mg/mL. 25 μL 4× LDS sample buffer supplemented with 100 mM DTT was added to 75 μL sample. Samples were centrifuged (8,000 xg, 1 min) and incubated at 95° C. for 5 min followed by another centrifugation step (8,000 xg, 1 min). 20 μL of each sample was loaded on a 4-12% gel alongside a protein molecular weight marker. Gels were run in the presence of MOPS buffer at 80 Volts for 30 min, followed by 120 Volts for 1.5 h and proteins subsequently transferred onto nitrocellulose membranes at 20 Volts for 7 min using an iBlot2 Gel Transfer Device. Membranes were then cut horizontally into two pieces, covering 80-50 kDa and 50-25 kDa. Blocking the membranes was performed by gently shaking in 5% (w/v) skim milk in TSB-T for 1 hr at room temperature. All primary antibodies were used at a 1/1000 in 5% (w/v) BSA dissolved in TBST and incubated with membranes over night at 4° C. Anti-IKZF1 (Ikaros; D6N9Y; 14859S), anti-IKZF3 (Aiolos; D1C1E; 15103S) antibodies were purchased from Cell Signalling Technology, anti-ZFP91 antibody from Bethyl laboratories, anti-GSPT1 from Sigma Aldrich (HPA052488) and anti CK1alpha from AbCam (ab206652). After three washes with 1× TBST for 5 min, HRP-coupled secondary antibodies diluted in 5% (w/v) BSA/TBST (Goat Anti-Rb IgG, dil. 1/10,000; Goat Anti-Mouse IgG, dil. 1/5000) were added for 1 hr at room temperature. After three washes with 1× TBST (5 minutes each), membranes were incubated with ECL reagent for 1 min at room temperature. Chemiluminescence signals were then detected using a LAS-4000 system with default settings and signals quantified using Image Studio Lite software (version 5.2). Membrane parts previously incubated with antibody against CK1alpha were stripped off antibodies by incubating with stripping buffer for 30 minutes followed by three washed with TBST (5 min each), blocking with 5% (w/v) skim milk for 1 hr, and incubation with primary antibody against GAPDH overnight at 4° C. Subsequent washes, incubation with secondary antibody and signal acquisition were performed as described above.

[3] = 6 hours, read-out: Activity for GSPT1 degradation, Code (DC50)
[4] = GSPT1 degradation, read-out: DC50 value

Sequence of GSPT1 (P15170 whole entry): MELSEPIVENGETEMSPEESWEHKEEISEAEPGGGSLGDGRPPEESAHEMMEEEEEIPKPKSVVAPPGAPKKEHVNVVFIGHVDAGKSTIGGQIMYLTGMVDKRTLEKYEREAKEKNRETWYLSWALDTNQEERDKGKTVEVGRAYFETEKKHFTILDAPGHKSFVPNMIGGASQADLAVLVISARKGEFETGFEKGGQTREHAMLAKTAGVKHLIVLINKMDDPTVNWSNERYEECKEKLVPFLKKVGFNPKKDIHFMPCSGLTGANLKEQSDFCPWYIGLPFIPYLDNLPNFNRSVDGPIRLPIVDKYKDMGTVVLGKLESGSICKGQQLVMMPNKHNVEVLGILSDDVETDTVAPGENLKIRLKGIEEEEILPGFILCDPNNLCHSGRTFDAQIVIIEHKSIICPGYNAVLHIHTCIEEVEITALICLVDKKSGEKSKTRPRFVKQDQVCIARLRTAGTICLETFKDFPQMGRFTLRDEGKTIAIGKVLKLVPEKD
Sequence of GSPT1 (Q96SW2 whole entry): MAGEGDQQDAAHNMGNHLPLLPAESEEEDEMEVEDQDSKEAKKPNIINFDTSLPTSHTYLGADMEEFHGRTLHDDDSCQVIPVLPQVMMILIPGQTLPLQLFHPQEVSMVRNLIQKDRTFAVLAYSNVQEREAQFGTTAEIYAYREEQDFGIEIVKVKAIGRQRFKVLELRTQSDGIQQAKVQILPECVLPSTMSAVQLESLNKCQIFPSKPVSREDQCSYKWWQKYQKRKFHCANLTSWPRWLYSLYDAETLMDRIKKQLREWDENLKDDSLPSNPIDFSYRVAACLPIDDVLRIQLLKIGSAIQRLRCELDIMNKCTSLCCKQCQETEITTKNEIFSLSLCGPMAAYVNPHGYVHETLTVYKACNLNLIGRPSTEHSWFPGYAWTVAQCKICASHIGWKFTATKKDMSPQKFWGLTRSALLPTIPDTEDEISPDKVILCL
Sequence of GSPT1 (Q16531 2-1140 partner): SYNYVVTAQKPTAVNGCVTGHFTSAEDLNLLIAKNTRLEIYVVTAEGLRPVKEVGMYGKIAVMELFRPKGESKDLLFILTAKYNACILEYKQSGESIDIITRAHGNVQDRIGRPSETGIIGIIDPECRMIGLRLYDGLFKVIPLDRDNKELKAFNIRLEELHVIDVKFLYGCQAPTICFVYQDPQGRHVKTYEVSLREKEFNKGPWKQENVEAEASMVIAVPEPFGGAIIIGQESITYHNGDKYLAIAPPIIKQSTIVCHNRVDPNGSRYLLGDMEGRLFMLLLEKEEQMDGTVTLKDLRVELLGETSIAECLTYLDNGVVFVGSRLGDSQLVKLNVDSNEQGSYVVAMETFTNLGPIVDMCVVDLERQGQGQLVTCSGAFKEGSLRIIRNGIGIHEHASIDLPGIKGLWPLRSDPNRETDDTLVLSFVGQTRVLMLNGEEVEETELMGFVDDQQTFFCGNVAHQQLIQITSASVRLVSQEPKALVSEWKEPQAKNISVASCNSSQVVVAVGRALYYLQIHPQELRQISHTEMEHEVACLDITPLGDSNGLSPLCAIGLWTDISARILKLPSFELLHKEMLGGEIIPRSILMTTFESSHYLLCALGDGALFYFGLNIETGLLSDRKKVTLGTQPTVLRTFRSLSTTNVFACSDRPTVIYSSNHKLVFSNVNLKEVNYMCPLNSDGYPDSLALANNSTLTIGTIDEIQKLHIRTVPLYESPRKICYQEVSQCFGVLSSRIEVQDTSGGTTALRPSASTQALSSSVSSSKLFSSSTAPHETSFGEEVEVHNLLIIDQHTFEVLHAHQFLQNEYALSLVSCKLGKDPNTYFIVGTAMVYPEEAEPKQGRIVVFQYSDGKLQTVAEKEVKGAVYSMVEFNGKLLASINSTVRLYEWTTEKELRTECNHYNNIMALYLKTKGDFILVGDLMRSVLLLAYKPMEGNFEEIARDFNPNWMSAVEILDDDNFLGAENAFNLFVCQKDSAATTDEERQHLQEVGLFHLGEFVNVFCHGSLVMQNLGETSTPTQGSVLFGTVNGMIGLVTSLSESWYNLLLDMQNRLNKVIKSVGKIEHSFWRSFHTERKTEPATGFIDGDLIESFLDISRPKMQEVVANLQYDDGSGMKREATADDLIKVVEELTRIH

Structure (SMILES)	DC50 [1, 3]	DC50 [1, 4]	CK1alpha degradation [2]	CK1alpha degradation (FIG. 1A) ([2]; highest concentration tested of 30 μM)
O=C1CCC(N2Cc3ccc(COC(=O)Nc4ccc(N5CCCCC5)nc4)cc3C2=O)C(=O)N1 (stereo not shown) [Compound 15]	< 30 nM	≤ 30 nM	C (C represents weak degradation at 30 μM (below 50%))	
O=C1CCC(N2Cc3ccc(COC(=O)Nc4ccc(-c5ccccc5)nc4)cc3C2=O)C(=O)N1 (stereo not shown) [Compound 42]	< 30 nM	≤ 30 nM	B (B represents trace degradation at 30 μM (below 20%))	

Further lines, with some results ahead:

DC50 [1, 3]	DC50 [1, 4]	Structure (SMILES)	CK1alpha degradation [2]	CK1alpha degradation (FIG. 1A) ([2]; highest concentration tested of 30 μM)
< 30 nM	≤ 30 nM	Cc1ncc(NC(=O)OCc2ccc3c(c2)C(=O)N(C2CCC(=O)NC2=O)C3)cc1Cl (stereo not shown) [Compound 6]	A	
< 30 nM	≤ 30 nM	Cc1ccc(NC(=O)OCc2ccc3c(c2)C(=O)N(C2CCC(=O)NC2=O)C3)cc1Cl (stereo not shown) [Compound 10]	B (B represents trace degradation at 30 μM (below 20%))	none of the known the substrates IKZF1, IKZF3, SALL4, CK1alpha was degraded
< 30 nM	≤ 30 nM	CC(C)(C)c1ccc(NC(=O)OCc2ccc3c(c2)C(=O)N(C2CCC(=O)NC2=O)C3)cn1 (stereo not shown) [Compound 43]	C (C represents weak degradation at 30 μM (below 50%))	

From US11912682B2, “Isoindolinone compounds” (Monte Rosa Therapeutics, Inc., priority 2021, dated 2024)
